Reference: US10647690B2, “2,3-epoxy succinyl derivative, preparation method and use thereof” (Institute of Pharmacology and Toxicology Academy of …, priority 2016, dated 2020)
Read-outs that look alike come from different tables or passages of the source.

What was measured:
Format in all cases: biochemical
[1] = target: T1, Cathepsin K (Homo sapiens, UniProt P43235); experiment: Preliminary screening of Cathepsin K (Cathepsin K Inhibitor Screening Kit K150-100, Biovision); settings: relative inhibition rate vs 10 μM FF-FMK control
T1 construct: purchased Biovision K150-100
T1 sequence (P43235 115-329): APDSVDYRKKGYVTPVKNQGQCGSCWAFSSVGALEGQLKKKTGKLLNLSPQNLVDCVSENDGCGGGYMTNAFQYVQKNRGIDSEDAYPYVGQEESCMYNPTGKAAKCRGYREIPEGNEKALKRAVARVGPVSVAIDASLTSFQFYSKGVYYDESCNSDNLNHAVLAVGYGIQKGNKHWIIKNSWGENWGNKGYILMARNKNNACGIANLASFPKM
Method: 1. Method for preliminary screening of Cathepsin K:
Preliminary screening of Cathepsin K was performed by using Cathepsin K Inhibitor Screening Kit (Product No. K150-100) from Biovision Company.
1.1.1 Preparation of Cathepsin K enzyme solution: Cathepsin K enzyme (40 μl) and Cathepsin K reagent (80 μl) were added to Cathepsin K buffer (3.88 ml), and were mixed well, to prepare Cathepsin K enzyme solution with a volume of 4 ml, which was placed on ice for further use.
1.1.2 Preparation of a compound solution: different compounds were separately weighed and dissolved in DMSO (methyl sulfoxide), to prepare solutions at a concentration of 30 mM as stock solutions, and for some insoluble compounds, they were prepared into solutions at a concentration of 10 mM as stock solutions; the 30 mM and 10 mM compound stock solutions were diluted to 1 mM and 100 μM DMSO solutions, respectively; 1 mM and 100 μM compound DMSO solutions (2 μl) were separately added to CTSK buffer (18 μl), to prepare compound solutions at a final concentration of 100 μM and 10 μM, respectively, wherein the concentration of DMSO was 10%.
1.1.3 Preparation of Cathepsin K substrate solution: Cathepsin K substrate (160 μl) was added to Cathepsin K buffer (3.44 ml), and mixed homogeneously, to prepare Cathepsin K substrate solution with a volume of 3.6 ml, which was placed on ice for further use.
1.2 Method for screening Cathepsin K inhibitor: Cathepsin K enzyme solution (prepared in Item 1.1.1) was added to a 384-well plate (ProxiPlate-384 Plus, Perkinelmer) at 10 μl/well, and centrifuged at 1000 rpm for 1 min; the compound solution (prepared in Item 1.1.2) was then added at 2 µl/well, and centrifuged at 1000 rpm for 1 min, and every concentration was repeated in two wells; the plate was placed in a 25° C. incubator for 15 min; Cathepsin K substrate solution was then added at 8 μl/well, and centrifuged at 1000 rpm for 1 min; and finally, the fluorescence signal was read in Enspire, wherein the exciting light was at a wavelength of 400 nm, the emitting light was at a wavelength of 505 nm, and continuous reading was performed at 37° C. for 120 min.
1.3 Data analysis: the slope (S) for all the samples was calculated by ΔRFU (RFU2−RFU1) and time ΔT (T2−T1), including negative control (Enzyme Control, EC) and positive control (Inhibitor Control, IC: 10 μM FF-FMK), and the calculation formula was as followed: Relative inhibition rate %=(SEC−SS)/(SEC−SIC)*100.

[2] = target: T1, Cathepsin K; experiment: IC50 determination against Cathepsin K (Biovision kit K150-100); settings: CTSK
Method: (§1) 2. Method for determining IC50 of compounds against cathepsin:
IC50 of compounds against Cathepsin K was determined by using Cathepsin K Inhibitor Screening Kit (Product No. K150-100) from Biovision Company;
2.1.1.1 Preparation of Cathepsin K solution: Cathepsin K enzyme (23 μl) and Cathepsin K reagent (46 μl) were added to Cathepsin K buffer (2231 μl), and mixed well, to prepare Cathepsin K enzyme solution with a volume of 2.3 ml, which was placed on ice for further use.
(§2) 2.1.2 Preparation of compound solutions: 30 mM and 10 mM compound stock solutions, and control compounds were gradiently diluted in DMSO at a ratio of 1:3, wherein the maximum dilution fold was 19683; the gradiently diluted compound solution (3 μl) was added to Cathepsin K, B, L, and S buffer (27 μl), respectively, and mixed well, wherein the control compounds (FF-FMK, F-F-FMK, FF-FMK and Z-FF-FMK) were at the concentrations of 66.67, 22.22, 7.41, 2.47, 0.82, 0.27, 0.091, 0.03, 0.01, 0.0034 and 0 μM, respectively, the test compounds were at the concentrations of 1000, 333.3, 111.1, 37, 12.3, 4.1, 1.4, 0.46, 0.15, 0.05 and 0 μM, respectively, and the final concentration of DMSO was 10%.
2.1.3.1 Cathepsin K: Cathepsin K substrate (90 μl) was added to Cathepsin K buffer (1710 μl), and mixed well, to prepare Cathepsin K substrate solution with a volume of 1.8 ml, which was placed on ice for further use.
(§3) Method for screening cathepsin inhibitors: the cathepsin solution (prepared in Item 2.1.1) was added to a 384-well plate (ProxiPlate-384 Plus, Perkinelmer) at 10 μl/well, and centrifuged at 1000 rpm for Imin; the compound solution (prepared in Item 2.1.2) was then added at 2 μl/well, and every concentration was repeated in two wells; the final concentrations of the test compounds were 100, 33.3, 11.1, 3.7, 1.23, 0.41, 0.14, 0.046, 0.015, 0.005 and 0 μM, respectively, wherein the final concentration of DMSO was 1%; after centrifugation at 1000 rpm for 1 min, the plate was put in a 25° C. incubator for 15 min; the cathepsin substrate solution was then added at 8 µl/well, and centrifuged at 1000 rpm for 1 min; and finally, the fluorescence signal was read in Enspire, wherein the exciting light was at a wavelength of 400 nm, the emitting light was at a wavelength of 505 nm, and continuous reading was performed at 37° C. for 120 min.
(§4) Data analysis: the slope (S) for all the samples was calculated by ΔRFU(RFU2−RFU1) and time ΔT(T2−T1), including negative control (Enzyme Control, EC) and positive control (Inhibitor Control, IC: 10 μM (FF-FMK, F-F-FMK, FF-FMK and Z-FF-FMK), and the calculation formula was as followed: Relative inhibition rate %=(SEC−SS)/(SEC−SIC)*100. The IC50 for each compound was obtained by means of fitting by software GraphPad Prism 5.0.

[3] = target: T2, Cathepsin S (Homo sapiens, UniProt P25774); experiment: IC50 determination against Cathepsin S (Biovision kit K149-100); settings: CTSS
T2 construct: purchased Biovision K149-100
T2 sequence (P25774 115-331): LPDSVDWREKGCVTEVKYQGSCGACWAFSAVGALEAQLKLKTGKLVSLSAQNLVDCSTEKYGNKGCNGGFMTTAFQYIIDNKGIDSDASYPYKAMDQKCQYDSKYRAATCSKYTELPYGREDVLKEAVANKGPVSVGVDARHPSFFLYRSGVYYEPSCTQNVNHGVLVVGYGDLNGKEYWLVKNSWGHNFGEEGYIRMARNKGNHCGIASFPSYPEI
Method: as §1
IC50 of compounds against Cathepsin S was determined by using Cathepsin S Inhibitor Screening Kit (Product No. K149-100) from Biovision Company.
2.1.1.4 Preparation of Cathepsin S solution: Cathepsin S enzyme (46 μl) was added to Cathepsin S buffer (2254 μl), and mixed well, to prepare Cathepsin S enzyme solution with a volume of 2.3 ml, which was placed on ice for further use.
as §2
2.1.3.4 Cathepsin S: Cathepsin S substrate (90 μl) was added to Cathepsin S buffer (1710 μl), and mixed well, to prepare Cathepsin S substrate solution with a volume of 1.8 ml, which was placed on ice for further use.
as §3, §4

[4] = Exp-1, read-out: IC50 (nM) Exp-1
[5] = Exp-2, read-out: IC50 (nM) Exp-2
[6] = average of Exp-1 and Exp-2, read-out: Ave of IC50

## CCCNC(=O)[C@H]1O[C@@H]1C(=O)N[C@H](C(=O)N1CCC[C@H]1C(=O)O)[C@@H](C)CC [zxy-60, CA-074, reference compound]
[1]; 1 μM compound, replicate 1
  Inhibition % (1 μM) replicate 1: 88.44%
[1]; 1 μM compound, replicate 2
  Inhibition % (1 μM) replicate 2: 92.44%
[1]; 10 μM compound, replicate 1
  Inhibition % (10 μM) replicate 1: 94.49%
[1]; 10 μM compound, replicate 2
  Inhibition % (10 μM) replicate 2: 91.36%
[2]; [4]
  IC50: 252 nM
[2]; [5]
  IC50: 245 nM
[2]; [6]
  IC50: 248 nM
[3]; [4]
  IC50: 3510 nM
[3]; [5]
  IC50: 3230 nM
[3]; [6]
  IC50: 3370 nM
